The values that follow come from PMC9369311, “Examination of Intracellular GPCR-Mediated Signaling with High Temporal Resolution” (International Journal of Molecular Sciences, 2022).

The test addresses T1, DmOctβ1 receptor (Drosophila melanogaster, UniProt Q9VCZ3).
T1 construct: expressed in transfected cells; host or cells: flpTM cells (HEK293 flpIn, Invitrogen #750-07, carrying the CNGA2 variant)
T1 sequence (Q9VCZ3 1-508): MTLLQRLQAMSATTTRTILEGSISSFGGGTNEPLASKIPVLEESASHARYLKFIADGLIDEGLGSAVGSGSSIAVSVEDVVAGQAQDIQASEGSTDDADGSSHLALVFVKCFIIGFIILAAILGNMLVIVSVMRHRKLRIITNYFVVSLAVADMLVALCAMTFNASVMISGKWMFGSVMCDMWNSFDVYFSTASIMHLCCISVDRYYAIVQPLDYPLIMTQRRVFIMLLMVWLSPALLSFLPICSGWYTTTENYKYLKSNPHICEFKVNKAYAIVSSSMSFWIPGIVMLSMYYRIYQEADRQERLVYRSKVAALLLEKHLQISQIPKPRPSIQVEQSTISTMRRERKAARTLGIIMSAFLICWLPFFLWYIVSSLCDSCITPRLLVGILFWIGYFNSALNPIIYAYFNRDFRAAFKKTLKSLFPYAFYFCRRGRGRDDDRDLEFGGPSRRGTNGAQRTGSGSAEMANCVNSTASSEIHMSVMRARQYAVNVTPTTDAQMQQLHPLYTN
In words: Ca2+ fluorimetry in plate reader (96 MWP), flpTM-DmOctβ1 cells (cAMP-mediated Ca2+ influx via CNGA2). The class given is cell-based. On the procedure: Both the DmOctα1B receptor- and DmOctβ1 receptor-expressing (=flpTM-DmOctβ1) cell lines were initially investigated via Ca^2+ fluorimetric measurements in a plate reader. The cells were seeded in 96 well plates and loaded with Fluo-4, enabling the detection of changes in [Ca^2+]i. The Fluo-4 was excited at 485 nm and the fluorescence emission was recorded at 510 nm. To overcome the cAMP degradation by cell-endogenous phosphodiesterases, the DmOctβ1-expressing cells were treated with 100 µM iso-butylmethylxanthine (IBMX). Prior to the ligand application, the basal fluorescence (F0) was recorded and the concentration–response curves were generated by plotting the changes in fluorescence ((Fmax − F0)/F0 = ΔF/F0) against the ligand concentrations. For a better comparison, the fluorescence intensities were normalized. The maximal change in fluorescence for each of the stimulation series was defined as 100%. The EC50 values were determined from a nonlinear regression plot (four parameters) using GraphPad Prism v5.04 for analysis and display.
In order to omit loading with the fluorescent dye, both the DmOctα1B-expressing cells and flpTM-DmOctβ1 cells were stably transfected with a construct encoding the cytosolic version of GCaMP3.0. As in the previous experiment with Fluo-4, the GCaMP3.0-expressing cell lines were seeded in 96 well plates and incubated with the same series of increasing octopamine concentrations. The GCaMP3.0 was excited at 485 nm and the fluorescence emission was recorded at 510 nm. The basal fluorescence (F0) was recorded before adding the octopamine concentration series. The fluorescence intensities were normalized to the maximal change in fluorescence, defined as 100%. The concentration–response curves were generated with GraphPad Prism v5.04. In Figure 1, the concentration–response curves obtained with Fluo-4 and GCaMP3.0 are depicted for both of the receptors. […]

The structures appear in SMILES notation. Several values for one entry are separate records, joined by “and”; a condition that tells them apart may be missing. Equal entries are not always repeated. Where two headings read alike, the source gives them in different places.

As for `NCC(O)c1ccc(O)cc1` (stereo not drawn) [octopamine], the EC50 reads like this: (flpTM-DmOctβ1-GCaMP3.0 cells, 100 µM IBMX, given as logEC50 (negative), read-out: logEC50 ± SD (converted)) 0.437 nM; (flpTM-DmOctβ1-GCaMP3.0 cells, 100 µM IBMX, read-out: EC50) 0.4 nM; (flpTM-DmOctβ1 cells loaded with Fluo-4, 100 µM IBMX, read-out: EC50) ~1.2 nM and 1.2 nM.
